Measured values published in ChEMBL document CHEMBL1129381, “Novel (R)-2-amino-5-fluorotetralins: dopaminergic antagonists and inverse agonists” (J Med Chem, 1996).

Key:
D(3) dopamine receptor [1] = target: T1, D(3) dopamine receptor (Homo sapiens, UniProt P35462)
D(2) dopamine receptor [2] = target: T2, D(2) dopamine receptor (Homo sapiens, UniProt P14416); assay: Hill coefficients for [3H]-raclopride binding to dopamine D2 receptor high-and low-affinity agonist states
D(2) dopamine receptor [3] = target: T2, D(2) dopamine receptor
D(3) dopamine receptor [4] = target: T1, D(3) dopamine receptor; remark: listed apart in the source
[5] = target: T3, 5-hydroxytryptamine receptor 1A (Rattus norvegicus, UniProt P19327); assay: Inhibition of [3H]8-OH-DPAT binding to 5-hydroxytryptamine 1A receptor
T3 sequence (P19327 whole entry): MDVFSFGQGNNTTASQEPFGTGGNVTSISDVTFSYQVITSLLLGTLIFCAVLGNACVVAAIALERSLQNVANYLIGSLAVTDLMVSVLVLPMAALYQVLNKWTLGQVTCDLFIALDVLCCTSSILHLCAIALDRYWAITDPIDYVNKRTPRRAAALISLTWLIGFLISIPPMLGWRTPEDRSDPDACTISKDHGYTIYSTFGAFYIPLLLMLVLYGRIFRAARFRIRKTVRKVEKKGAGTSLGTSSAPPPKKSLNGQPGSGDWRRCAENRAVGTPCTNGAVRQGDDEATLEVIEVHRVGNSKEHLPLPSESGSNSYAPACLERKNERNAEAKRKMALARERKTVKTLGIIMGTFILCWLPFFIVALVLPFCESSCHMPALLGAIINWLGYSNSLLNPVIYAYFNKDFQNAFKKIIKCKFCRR

D(2) dopamine receptor [6] = target: T2, D(2) dopamine receptor; remark: listed apart in the source
D(2) dopamine receptor [7] = target: T2, D(2) dopamine receptor; assay: Inhibition of [3H]raclopride binding to Dopamine receptor D2

T2 sequence (P14416 whole entry): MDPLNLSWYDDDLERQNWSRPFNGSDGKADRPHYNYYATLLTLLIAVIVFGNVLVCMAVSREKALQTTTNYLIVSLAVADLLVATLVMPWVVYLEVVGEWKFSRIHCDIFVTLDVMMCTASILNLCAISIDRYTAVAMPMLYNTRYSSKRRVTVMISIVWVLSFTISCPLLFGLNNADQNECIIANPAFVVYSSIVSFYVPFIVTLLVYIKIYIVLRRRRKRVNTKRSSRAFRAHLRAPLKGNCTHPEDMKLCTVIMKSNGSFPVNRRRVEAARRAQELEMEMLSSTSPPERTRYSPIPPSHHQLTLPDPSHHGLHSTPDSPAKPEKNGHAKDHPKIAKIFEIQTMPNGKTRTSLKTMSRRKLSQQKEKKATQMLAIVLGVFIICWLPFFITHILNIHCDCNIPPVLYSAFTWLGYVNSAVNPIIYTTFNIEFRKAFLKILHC
T1 sequence (P35462 whole entry): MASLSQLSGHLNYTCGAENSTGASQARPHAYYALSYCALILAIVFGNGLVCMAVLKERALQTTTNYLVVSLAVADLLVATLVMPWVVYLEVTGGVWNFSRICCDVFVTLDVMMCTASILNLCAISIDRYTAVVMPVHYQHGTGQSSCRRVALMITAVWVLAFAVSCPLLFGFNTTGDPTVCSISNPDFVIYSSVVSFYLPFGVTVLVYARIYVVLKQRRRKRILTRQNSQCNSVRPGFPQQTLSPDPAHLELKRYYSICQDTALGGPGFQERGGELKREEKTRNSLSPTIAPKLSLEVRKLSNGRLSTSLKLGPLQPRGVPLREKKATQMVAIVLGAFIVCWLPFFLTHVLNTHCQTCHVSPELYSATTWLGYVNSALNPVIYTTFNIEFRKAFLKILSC

Row | Structure (SMILES) | nH (D(3) dopamine receptor [1]) | nH (D(2) dopamine receptor [2]) | Ki (D(2) dopamine receptor [3]) [µM] | Ki (D(3) dopamine receptor [4]) [µM] | Ki [5] [µM] | Ki (D(2) dopamine receptor [6]) [µM] | Ki (D(2) dopamine receptor [7]) [µM]
1 | Fc1cccc2c1CC[C@@H](NCc1ccccc1)C2 | 0.88 | 0.81 | 2.83 | 1.05 | 0.494 | 0.779 | 
2 | NCCc1ccc(O)c(O)c1 |  | 0.66 |  |  |  |  | 
3 | CCCN(C(C)C)[C@@H]1CCc2c(F)cccc2C1 | 0.91 | 0.94 | 4.72 | 0.199 | 0.644 | 1.53 | 
4 | O=C1CC2(CCCC2)CC(=O)N1CCCCN[C@@H]1CCc2c(F)cccc2C1 | 0.88 | 0.88 |  | 0.00494 | 0.00646 | 0.037 | 0.0682
5 | CCCN(Cc1ccccc1)[C@@H]1CCc2c(F)cccc2C1 | 0.92 | 0.86 | 0.415 | 0.0238 | 0.0288 | 0.179 | 
6 | N[C@@H]1CCc2c(F)cccc2C1 | 0.99 | 0.81 | 0.864 | 0.15 | 0.525 | 0.585 | 
7 | CC(C)N[C@@H]1CCc2c(F)cccc2C1 | 0.9 | 0.88 | 5.94 | 1.45 | 0.627 |  | 
8 | CCCN(CCC)[C@@H]1CCc2c(F)cccc2C1 | 1.03 | 0.89 | 0.201 | 0.00862 | 0.0302 | 0.026 | 
9 | CCCCN[C@@H]1CCc2c(F)cccc2C1 | 0.79 | 0.93 | 0.79 | 0.158 | 0.44 | 0.254 | 
10 | CCCN[C@@H]1CCc2c(F)cccc2C1 | 0.92 | 0.86 | 0.582 | 0.0358 | 0.108 | 0.167 | 
11 | CCCN(CCCCN1C(=O)CC2(CCCC2)CC1=O)[C@@H]1CCc2c(F)cccc2C1 | 0.92 | 0.87 |  | 0.000251 | 0.000246 | 0.00494 | 0.0169
12 | CCCCN(CCC)[C@@H]1CCc2c(F)cccc2C1 | 0.98 | 0.91 | 0.21 | 0.00442 | 0.0445 | 0.0456 | 
